According to the supplement of paper PMC10307832:

Key:
Assay in all cases: relative viability (nuclei count vs DMSO), 5 days (fraction); higher = more cells survive
Selisistat + Palbociclib = compound: C1CC(C2=C(C1)C3=C(N2)C=CC(=C3)Cl)C(=O)N [Selisistat] + CC(=O)c1c(C)c2cnc(Nc3ccc(N4CCNCC4)cn3)nc2n(C2CCCC2)c1=O [Palbociclib] (partner 0.5 µM)
Summary of the method: (§1)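 Each reported value is a median over duplicate plates. It expresses relative viability: treated-well nuclei count divided by vehicle-well nuclei count. Lung cancer cell lines in 1536-well plates were dosed by pin tool a day after seeding, alone with one drug or with a fixed anchor-drug dose plus five library-drug doses (not always all listed) in √10 steps, and nuclei were counted after 5 days.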

Selisistat + AZD7762 = compound: C1CC(C2=C(C1)C3=C(N2)C=CC(=C3)Cl)C(=O)N [Selisistat] + NC(=O)Nc1cc(-c2cccc(F)c2)sc1C(=O)N[C@H]1CCCNC1 [AZD7762] (partner 0.2 µM)
Summary of the method: as §1

Serdemetan + Crizotinib = compound: c1ccc2c(CCNc3ccc(Nc4ccncc4)cc3)c[nH]c2c1 [Serdemetan] + C[C@@H](Oc1cc(-c2cnn(C3CCNCC3)c2)cnc1N)c1c(Cl)ccc(F)c1Cl [Crizotinib] (partner 1 µM)
Summary of the method: as §1

Serdemetan + Decitabine = compound: c1ccc2c(CCNc3ccc(Nc4ccncc4)cc3)c[nH]c2c1 [Serdemetan] + Nc1ncn([C@H]2C[C@H](O)[C@@H](CO)O2)c(=O)n1 [Decitabine] (partner 2 µM)
Summary of the method: as §1

EMC-BAC-2
relative viability (Selisistat + Palbociclib; first compound 0.4 µM): 0.523 | relative viability (Selisistat + Palbociclib; first compound 1.265 µM): 0.525 | relative viability (Selisistat + Palbociclib; first compound 4 µM): 0.586 | relative viability (Selisistat + Palbociclib; first compound 12.65 µM): 0.282 | relative viability (Selisistat + Palbociclib; first compound 40 µM): 0.319 | relative viability (Selisistat + AZD7762; first compound 0.4 µM): 1.08 | relative viability (Selisistat + AZD7762; first compound 1.265 µM): 1.11 | relative viability (Selisistat + AZD7762; first compound 4 µM): 1.07 | relative viability (Selisistat + AZD7762; first compound 12.65 µM): 0.661 | relative viability (Selisistat + AZD7762; first compound 40 µM): 0.598 | relative viability (Serdemetan + Crizotinib; first compound 0.04 µM): 0.727 | relative viability (Serdemetan + Crizotinib; first compound 0.1265 µM): 0.778 | relative viability (Serdemetan + Crizotinib; first compound 0.4 µM): 0.694 | relative viability (Serdemetan + Crizotinib; first compound 1.265 µM): 0.5 | relative viability (Serdemetan + Crizotinib; first compound 4 µM): 0.39 | relative viability (Serdemetan + Decitabine; first compound 0.04 µM): 0.882 | relative viability (Serdemetan + Decitabine; first compound 0.1265 µM): 0.912 | relative viability (Serdemetan + Decitabine; first compound 0.4 µM): 0.972 | relative viability (Serdemetan + Decitabine; first compound 1.265 µM): 0.879 | relative viability (Serdemetan + Decitabine; first compound 4 µM): 0.823

LU99A
relative viability (Selisistat + Palbociclib; first compound 0.4 µM): 0.459 | relative viability (Selisistat + Palbociclib; first compound 1.265 µM): 0.367 | relative viability (Selisistat + Palbociclib; first compound 4 µM): 0.44 | relative viability (Selisistat + Palbociclib; first compound 12.65 µM): 0.445 | relative viability (Selisistat + Palbociclib; first compound 40 µM): 0.399 | relative viability (Selisistat + AZD7762; first compound 0.4 µM): 0.372 | relative viability (Selisistat + AZD7762; first compound 1.265 µM): 0.256 | relative viability (Selisistat + AZD7762; first compound 4 µM): 0.392 | relative viability (Selisistat + AZD7762; first compound 12.65 µM): 0.436 | relative viability (Selisistat + AZD7762; first compound 40 µM): 0.338 | relative viability (Serdemetan + Crizotinib; first compound 0.04 µM): 0.521 | relative viability (Serdemetan + Crizotinib; first compound 0.1265 µM): 0.529 | relative viability (Serdemetan + Crizotinib; first compound 0.4 µM): 0.317 | relative viability (Serdemetan + Crizotinib; first compound 1.265 µM): 0.187 | relative viability (Serdemetan + Crizotinib; first compound 4 µM): 0.17 | relative viability (Serdemetan + Decitabine; first compound 0.04 µM): 0.943 | relative viability (Serdemetan + Decitabine; first compound 0.1265 µM): 0.84 | relative viability (Serdemetan + Decitabine; first compound 0.4 µM): 0.775 | relative viability (Serdemetan + Decitabine; first compound 1.265 µM): 0.419 | relative viability (Serdemetan + Decitabine; first compound 4 µM): 0.277

ABC-1
relative viability (Selisistat + Palbociclib; first compound 0.4 µM): 0.713 | relative viability (Selisistat + Palbociclib; first compound 1.265 µM): 0.695 | relative viability (Selisistat + Palbociclib; first compound 12.65 µM): 0.563 | relative viability (Selisistat + Palbociclib; first compound 40 µM): 0.735 | relative viability (Selisistat + AZD7762; first compound 0.4 µM): 0.791 | relative viability (Selisistat + AZD7762; first compound 1.265 µM): 0.778 | relative viability (Selisistat + AZD7762; first compound 12.65 µM): 0.829 | relative viability (Selisistat + AZD7762; first compound 40 µM): 1.08 | relative viability (Serdemetan + Crizotinib; first compound 0.04 µM): 0.926 | relative viability (Serdemetan + Crizotinib; first compound 0.1265 µM): 1 | relative viability (Serdemetan + Crizotinib; first compound 0.4 µM): 0.817 | relative viability (Serdemetan + Crizotinib; first compound 1.265 µM): 0.69 | relative viability (Serdemetan + Crizotinib; first compound 4 µM): 0.475 | relative viability (Serdemetan + Decitabine; first compound 0.04 µM): 0.896 | relative viability (Serdemetan + Decitabine; first compound 0.1265 µM): 1.01 | relative viability (Serdemetan + Decitabine; first compound 0.4 µM): 1.25 | relative viability (Serdemetan + Decitabine; first compound 1.265 µM): 0.921 | relative viability (Serdemetan + Decitabine; first compound 4 µM): 0.844

NCI-H2170
relative viability (Selisistat + Palbociclib; first compound 0.4 µM): 0.436 | relative viability (Selisistat + Palbociclib; first compound 1.265 µM): 0.396 | relative viability (Selisistat + Palbociclib; first compound 4 µM): 0.413 | relative viability (Selisistat + Palbociclib; first compound 12.65 µM): 0.458 | relative viability (Selisistat + Palbociclib; first compound 40 µM): 0.475 | relative viability (Selisistat + AZD7762; first compound 0.4 µM): 0.868 | relative viability (Selisistat + AZD7762; first compound 1.265 µM): 0.939 | relative viability (Selisistat + AZD7762; first compound 4 µM): 0.82 | relative viability (Selisistat + AZD7762; first compound 12.65 µM): 0.854 | relative viability (Selisistat + AZD7762; first compound 40 µM): 0.911 | relative viability (Serdemetan + Crizotinib; first compound 0.04 µM): 1.13 | relative viability (Serdemetan + Crizotinib; first compound 0.1265 µM): 1.16 | relative viability (Serdemetan + Crizotinib; first compound 0.4 µM): 1.16 | relative viability (Serdemetan + Crizotinib; first compound 1.265 µM): 1.22 | relative viability (Serdemetan + Crizotinib; first compound 4 µM): 1.22 | relative viability (Serdemetan + Decitabine; first compound 0.04 µM): 0.419 | relative viability (Serdemetan + Decitabine; first compound 0.1265 µM): 0.497 | relative viability (Serdemetan + Decitabine; first compound 0.4 µM): 0.437 | relative viability (Serdemetan + Decitabine; first compound 1.265 µM): 0.417 | relative viability (Serdemetan + Decitabine; first compound 4 µM): 0.361

NCI-H1299
relative viability (Serdemetan + Crizotinib; first compound 0.04 µM): 0.898 | relative viability (Serdemetan + Crizotinib; first compound 0.1265 µM): 0.947 | relative viability (Serdemetan + Crizotinib; first compound 0.4 µM): 0.905 | relative viability (Serdemetan + Crizotinib; first compound 1.265 µM): 0.866 | relative viability (Serdemetan + Crizotinib; first compound 4 µM): 0.716

EBC-1
relative viability (Serdemetan + Crizotinib; first compound 0.04 µM): 0.19 | relative viability (Serdemetan + Crizotinib; first compound 0.1265 µM): 0.214 | relative viability (Serdemetan + Crizotinib; first compound 0.4 µM): 0.188 | relative viability (Serdemetan + Crizotinib; first compound 1.265 µM): 0.19 | relative viability (Serdemetan + Crizotinib; first compound 4 µM): 0.181

NCI-H2347
relative viability (Selisistat + Palbociclib; first compound 0.4 µM): 0.38 | relative viability (Selisistat + Palbociclib; first compound 1.265 µM): 0.438 | relative viability (Selisistat + Palbociclib; first compound 12.65 µM): 0.409 | relative viability (Selisistat + Palbociclib; first compound 40 µM): 0.447 | relative viability (Selisistat + AZD7762; first compound 0.4 µM): 0.733 | relative viability (Selisistat + AZD7762; first compound 1.265 µM): 0.66 | relative viability (Selisistat + AZD7762; first compound 12.65 µM): 0.774 | relative viability (Selisistat + AZD7762; first compound 40 µM): 0.795 | relative viability (Serdemetan + Crizotinib; first compound 0.04 µM): 0.673 | relative viability (Serdemetan + Crizotinib; first compound 0.1265 µM): 0.699 | relative viability (Serdemetan + Crizotinib; first compound 0.4 µM): 0.674 | relative viability (Serdemetan + Crizotinib; first compound 1.265 µM): 0.506 | relative viability (Serdemetan + Crizotinib; first compound 4 µM): 0.0688 | relative viability (Serdemetan + Decitabine; first compound 0.04 µM): 0.638 | relative viability (Serdemetan + Decitabine; first compound 0.1265 µM): 0.615 | relative viability (Serdemetan + Decitabine; first compound 0.4 µM): 0.583 | relative viability (Serdemetan + Decitabine; first compound 1.265 µM): 0.474 | relative viability (Serdemetan + Decitabine; first compound 4 µM): 0.527

NCI-H1993
relative viability (Selisistat + Palbociclib; first compound 0.4 µM): 0.703 | relative viability (Selisistat + Palbociclib; first compound 1.265 µM): 0.67 | relative viability (Selisistat + Palbociclib; first compound 12.65 µM): 0.623 | relative viability (Selisistat + Palbociclib; first compound 40 µM): 0.676 | relative viability (Selisistat + AZD7762; first compound 0.4 µM): 0.793 | relative viability (Selisistat + AZD7762; first compound 1.265 µM): 0.791 | relative viability (Selisistat + AZD7762; first compound 12.65 µM): 0.954 | relative viability (Selisistat + AZD7762; first compound 40 µM): 0.816 | relative viability (Serdemetan + Crizotinib; first compound 0.04 µM): 0.951 | relative viability (Serdemetan + Crizotinib; first compound 0.1265 µM): 0.944 | relative viability (Serdemetan + Crizotinib; first compound 0.4 µM): 0.86 | relative viability (Serdemetan + Crizotinib; first compound 4 µM): 0.734 | relative viability (Serdemetan + Decitabine; first compound 0.04 µM): 0.696 | relative viability (Serdemetan + Decitabine; first compound 0.1265 µM): 0.593 | relative viability (Serdemetan + Decitabine; first compound 0.4 µM): 0.542 | relative viability (Serdemetan + Decitabine; first compound 1.265 µM): 0.577 | relative viability (Serdemetan + Decitabine; first compound 4 µM): 0.56

NCI-H2342
relative viability (Selisistat + Palbociclib; first compound 0.4 µM): 0.554 | relative viability (Selisistat + Palbociclib; first compound 1.265 µM): 0.753 | relative viability (Selisistat + Palbociclib; first compound 4 µM): 0.46 | relative viability (Selisistat + Palbociclib; first compound 12.65 µM): 0.538 | relative viability (Selisistat + Palbociclib; first compound 40 µM): 0.611 | relative viability (Selisistat + AZD7762; first compound 0.4 µM): 0.494 | relative viability (Selisistat + AZD7762; first compound 1.265 µM): 0.483 | relative viability (Selisistat + AZD7762; first compound 4 µM): 0.41 | relative viability (Selisistat + AZD7762; first compound 12.65 µM): 0.611 | relative viability (Selisistat + AZD7762; first compound 40 µM): 0.505 | relative viability (Serdemetan + Decitabine; first compound 0.04 µM): 0.753 | relative viability (Serdemetan + Decitabine; first compound 0.1265 µM): 0.776 | relative viability (Serdemetan + Decitabine; first compound 0.4 µM): 0.643 | relative viability (Serdemetan + Decitabine; first compound 1.265 µM): 0.531 | relative viability (Serdemetan + Decitabine; first compound 4 µM): 0.475

COR-L23
relative viability (Selisistat + Palbociclib; first compound 0.4 µM): 0.372 | relative viability (Selisistat + Palbociclib; first compound 1.265 µM): 0.296 | relative viability (Selisistat + Palbociclib; first compound 4 µM): 0.332 | relative viability (Selisistat + Palbociclib; first compound 12.65 µM): 0.305 | relative viability (Selisistat + Palbociclib; first compound 40 µM): 0.296 | relative viability (Serdemetan + Crizotinib; first compound 0.04 µM): 0.679 | relative viability (Serdemetan + Crizotinib; first compound 0.1265 µM): 0.578 | relative viability (Serdemetan + Crizotinib; first compound 0.4 µM): 0.771 | relative viability (Serdemetan + Crizotinib; first compound 1.265 µM): 0.589 | relative viability (Serdemetan + Crizotinib; first compound 4 µM): 0.564 | relative viability (Serdemetan + Decitabine; first compound 0.04 µM): 0.4 | relative viability (Serdemetan + Decitabine; first compound 0.1265 µM): 0.443 | relative viability (Serdemetan + Decitabine; first compound 0.4 µM): 0.435 | relative viability (Serdemetan + Decitabine; first compound 1.265 µM): 0.39 | relative viability (Serdemetan + Decitabine; first compound 4 µM): 0.353

COR-L 105
relative viability (Selisistat + Palbociclib; first compound 0.4 µM): 0.427 | relative viability (Selisistat + Palbociclib; first compound 1.265 µM): 0.378 | relative viability (Selisistat + Palbociclib; first compound 4 µM): 0.397 | relative viability (Selisistat + Palbociclib; first compound 12.65 µM): 0.419 | relative viability (Selisistat + Palbociclib; first compound 40 µM): 0.437 | relative viability (Serdemetan + Crizotinib; first compound 0.04 µM): 0.729 | relative viability (Serdemetan + Crizotinib; first compound 0.1265 µM): 0.716 | relative viability (Serdemetan + Crizotinib; first compound 0.4 µM): 0.709 | relative viability (Serdemetan + Crizotinib; first compound 1.265 µM): 0.874 | relative viability (Serdemetan + Crizotinib; first compound 4 µM): 0.838 | relative viability (Serdemetan + Decitabine; first compound 0.04 µM): 0.65 | relative viability (Serdemetan + Decitabine; first compound 0.1265 µM): 0.646 | relative viability (Serdemetan + Decitabine; first compound 0.4 µM): 0.574 | relative viability (Serdemetan + Decitabine; first compound 1.265 µM): 0.52 | relative viability (Serdemetan + Decitabine; first compound 4 µM): 0.626
